# Patent publication US20240270759A1, “Preparation of SHP2 phosphatase inhibitors and its applications” (Ya Therapeutics Inc, priority 2021, published 2024)
# Target: T1, SHP2 full-length protein (Homo sapiens, UniProt Q06124)
# T1 construct: purchased BPS Bioscience #79330
# T1 sequence (Q06124 1-593): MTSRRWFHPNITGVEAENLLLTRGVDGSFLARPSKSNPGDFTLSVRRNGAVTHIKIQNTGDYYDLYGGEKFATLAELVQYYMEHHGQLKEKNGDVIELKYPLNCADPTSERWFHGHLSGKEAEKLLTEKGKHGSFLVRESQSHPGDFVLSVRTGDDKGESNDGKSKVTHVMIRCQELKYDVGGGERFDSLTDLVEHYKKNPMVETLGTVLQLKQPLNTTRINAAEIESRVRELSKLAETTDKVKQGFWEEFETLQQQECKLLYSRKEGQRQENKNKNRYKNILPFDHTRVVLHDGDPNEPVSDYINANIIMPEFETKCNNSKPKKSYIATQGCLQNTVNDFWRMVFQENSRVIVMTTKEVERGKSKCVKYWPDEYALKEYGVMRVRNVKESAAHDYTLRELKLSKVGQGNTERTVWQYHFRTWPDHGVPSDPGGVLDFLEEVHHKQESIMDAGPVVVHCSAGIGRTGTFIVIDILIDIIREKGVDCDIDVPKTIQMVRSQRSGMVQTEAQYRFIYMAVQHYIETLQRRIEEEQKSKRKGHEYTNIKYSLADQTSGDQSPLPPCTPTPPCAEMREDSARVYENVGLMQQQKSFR
# Assay: SHP2 allosteric inhibition experiment (Homogeneous Full Length SHP-2 Assay Kit)
# Type: biochemical
# Conditions: full-length SHP2 0.06 nM with SHP-2 activating peptide; ten-point, 1 μM to 0.05 nM; read-out: IC50 Values of Compounds Inhibiting SHP2
row,Molecule,IC50
1,"C[C@@H]1OCC2(CCN(c3ncc(Sc4cccc(NC(=O)c5ncccn5)c4Cl)cn3)CC2)[C@@H]1N [Compound 123, N-(3-((2-((3S,4S)-4-amino-3-methyl-2-oxa-8-azaspiro[4.5]decane-8-yl I)pyrimidine-5-yl)mercapto)-2-chlorophenyl)pyrimidine-2-carboxamide]",≤ 10 nM
2,"C[C@@H]1OCC2(CCN(c3ncc(Sc4cccc(NC(=O)c5ccncn5)c4Cl)cn3)CC2)[C@@H]1N [Compound 124, N-(3-((2-((3S,4S)-4-amino-3-methyl-2-oxa-8-azaspiro[4.5]decane-8-yl of 1)pyrimidine-5-yl)mercapto)-2-chlorophenyl)pyrimidine-4-carboxamide]",≤ 10 nM
3,"C[C@@H]1OCC2(CCN(c3ncc(Sc4cccc(NC(=O)c5ccccn5)c4Cl)cn3)CC2)[C@@H]1N [Compound 125, N-(3-((2-((3S,4S)-4-amino-3-methyl-2-oxa-8-azaspiro[4.5]decane-8-yl)pyrimidine-5-yl)mercapto)-2-chlorophenyl)pyridine-2-carboxamide]",≤ 10 nM
4,"C[C@@H]1OCC2(CCN(c3ncc(Sc4cccc(NC(=O)c5cnccn5)c4Cl)cn3)CC2)[C@@H]1N [Compound 126, N-(3-((2-((3S,4S)-4-amino-3-methyl-2-oxa-8-azaspiro[4.5]decane-8-yl)pyrimidine-5-yl)mercapto)-2-chlorophenyl)pyrazine-2-carboxamide]",≤ 10 nM
5,"CCn1ccc(-c2cccc(Sc3ccc(N4CCC5(CC4)CO[C@@H](C)[C@H]5N)nn3)c2Cl)n1 [Compound 127, (3S,4S)-8-(3-((2-chloro-3-(1-ethyl-1H-pyrazole-3-yl)phenyl)mercapto)pyridazine-6-yl)-3-methyl-2-oxa-8-azaspiro[4.5]decane-4-amine]",≤ 10 nM
6,"CCn1ccc(-c2cccc(Sc3nnc(N4CCC5(CC4)CO[C@@H](C)[C@H]5N)nn3)c2Cl)n1 [Compound 128, (3S,4S)-8-(3-((2-chloro-3-(1-ethyl-1H-pyrazole-3-yl)phenyl)mercapto)-tetrazine-6-yl)-3-methyl-2-oxa-8-azaspiro[4.5]decane-4-amine]",≤ 10 nM
7,"CCn1ccc(-c2cccc(Sc3ncc(N4CCC5(CC4)CO[C@@H](C)[C@H]5N)nn3)c2Cl)n1 [Compound 129, (3S,4S)-8-(3-((2-chloro-3-(1-ethyl-1H-pyrazole-3-yl)phenyl)mercapto)-1,2,4-triazine-6-yl)-3-methyl-2-oxa-8-azaspiro[4.5]decane-4-amine]",≤ 10 nM
8,"C[C@@H]1OCC2(CCN(c3ncc(Sc4cccc(NC(=O)c5c(O)nc6n(c5=O)CCCC6)c4Cl)nn3)CC2)[C@@H]1N [Compound 130, N-(3-((2-((3S,4S)-4-amino-3-methyl-2-oxa-8-azaspiro[4.5]decane-8-yl)-1,2,4-triazine-6-yl)mercapto)-2-chlorophenyl)-2-hydroxy-4-oxo-6,7,8,9-tetrahydro-4H-pyridinyl[1,2-a]pyrimidine-3-carboxamide]",≤ 10 nM
9,"CCn1ccc(-c2cccc(Sc3cnc(N4CCC5(CC4)CO[C@@H](C)[C@H]5N)nn3)c2Cl)n1 [Compound 131, (3S,4S)-8-(6-((2-chloro-3-(1-ethyl-1H-pyrazole-3-yl)phenyl)mercapto)-1,2,4-triazine-3-yl)-3-methyl-2-oxa-8-azaspiro[4.5]decane-4-amine]",≤ 10 nM
10,"C[C@@H]1OCC2(CCN(c3ccc(Sc4cccc(-c5cnccn5)c4Cl)nn3)CC2)[C@@H]1N [Compound 132, (3S,4S)-8-(3-((2-chloro-3-(pyrazine-2-yl)phenyl)mercapto)pyridazine-6-yl)-3-methyl-2-oxa-8-azaspiro[4.5]decane-4-amine]",≤ 10 nM
11,"C[C@@H]1OCC2(CCN(c3nnc(Sc4cccc(-c5cnccn5)c4Cl)nn3)CC2)[C@@H]1N [Compound 133, (3S,4S)-8-(3-((2-chloro-3-(pyrazine-2-yl)phenyl)mercapto)-tetrazine-6-yl)-3-methyl-2-oxa-8-azaspiro[4.5]decane-4-amine]",≤ 10 nM
12,"C[C@@H]1OCC2(CCN(c3cnc(Sc4cccc(-c5cnccn5)c4Cl)nn3)CC2)[C@@H]1N [Compound 134, (3S,4S)-8-(3-((2-chloro-3-(pyrazine-2-yl)phenyl)mercapto)-1,2,4-triazine-6-yl)-3-methyl-2-oxa-8-azaspiro[4.5]decane-4-amine]",≤ 10 nM
13,"C[C@@H]1OCC2(CCN(c3ncc(Sc4cccc(-c5cnccn5)c4Cl)nn3)CC2)[C@@H]1N [Compound 135, (3S,4S)-8-(6-((2-chloro-3-(pyrazine-2-yl)phenyl)mercapto)-1,2,4-triazine-3-yl)-3-methyl-2-oxa-8-azaspiro[4.5]decane-4-amine]",≤ 10 nM
14,"C[C@@H]1OCC2(CCN(c3nnc(Sc4cccc(NC(=O)c5c(O)nc6n(c5=O)CCCC6)c4Cl)nn3)CC2)[C@@H]1N [Compound 137, N-(3-((5-((3S,4S)-4-amino-3-methyl-2-oxa-8-azaspiro[4.5]decane-8-yl)s-tetrazine-3-yl)mercapto)-2-chlorophenyl)-2-hydroxy-4-oxa-6,7,8,9-tetrahydro-4H-pyridinyl[1,2-a]pyrimidine-3-carboxamide]",≤ 10 nM
15,"N-(3-((5-((3S,4S)-4-amino-3-methyl-2-oxa-8-azaspiro[4.5]decane-8-yl)-1,2,4-triazine-3-yl)mercapto)-2-chlorobenzene)-2-hydroxy-4-oxa-6,7,8,9-tetrahydro-4H-pyridinyl[1,2-a]pyrimidine-3-carboxamide [Compound 138]",≤ 10 nM
16,"N-(3-((5-((3S,4S)-4-amino-3-methyl-2-oxa-8-azaspiro[4.5]decane-8-yl)pyridazine-3-yl) mercapto)-2-chlorophenyl)-2-hydroxy-4-oxa-6,7,8,9-tetrahydro-4H-pyridinyl[1,2-a]pyrimidine-3-carboxamide [Compound 136]",≤ 10 nM
